Test results published in publication PMC10792010, “Analysis of vitamin D receptor binding affinities of enzymatically synthesized triterpenes including ambrein and unnatural onoceroids” (Scientific Reports, 2024).
“Also recorded” adds a separate entry of the source. Where two headings read alike, the source gives them in different places.

Experiments:
[1] = molecular target: T1, human VDR (Homo sapiens, UniProt P11473); assay: VDR binding affinity, split-luciferase vitamin D biosensor; conditions: for VDR binding affinity (in words): comparison between compounds, Fig. 3a; for Relative binding affinity: normalized to that of 1
T1 construct: made in house; host or cells: E. coli (cell lysate used)
T1 sequence (P11473 127-423 limits assumed): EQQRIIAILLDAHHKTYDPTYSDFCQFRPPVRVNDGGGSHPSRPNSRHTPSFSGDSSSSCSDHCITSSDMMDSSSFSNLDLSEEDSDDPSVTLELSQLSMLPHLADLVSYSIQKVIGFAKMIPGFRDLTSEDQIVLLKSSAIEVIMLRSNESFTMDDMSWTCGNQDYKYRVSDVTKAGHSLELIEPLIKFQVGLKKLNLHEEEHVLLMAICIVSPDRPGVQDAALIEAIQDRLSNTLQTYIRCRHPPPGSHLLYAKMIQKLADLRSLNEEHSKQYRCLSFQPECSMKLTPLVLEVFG
Experimental: The binding affinity of each compound for the human VDR was evaluated as described previously[10],[19]. In brief, 49 μL of cell lysate derived from recombinant E. coli expressing split-luciferase vitamin D biosensor protein was added to individual wells of a 96-well plate. Next, 1 μL of ethanol solution of each compound at appropriate concentrations was added to each well and incubated for 30 min at 25 °C. Subsequently, 50 μL of the Luciferin solution containing 20 mM of MgSO4, 2 mM of D-luciferin, and 4 mM of adenosine triphosphate in 25 mM Tris–HCl (pH 7.4) was introduced into each well and incubated for 30 min at 25 °C. The luminescence (photon counts) was measured using a luminometer (Infinite 200 Pro 96-microplate luminometer, Tecan, Switzerland). […] X values were calculated using the following equation: X=10^logA/B×50-C/D-C+logB.
In this equation, A and B correspond to concentrations near 50% of the maximum relative light intensity. C and D represent the relative light intensity (%) at concentrations B and A, respectively.

[2] = test system: RAW264.7 cells; assay: Osteoclastic differentiation-promoting activity (TRAP-positive multinucleated osteoclasts); type: cell-based; conditions: sRANKL 100 ng/mL, 4 days; relative to 50 μM 1, Fig. 4
Experimental: RAW264.7 cells were used as pre-osteoclastic cells. Cells were cultured in α-MEM medium containing 10% fetal bovine serum, 2 mM L-glutamine, 100 U/mL penicillin, and 100 μg/mL streptomycin. Osteoclastic differentiation was induced following treatment with 100 ng/mL sRANKL (Oriental Yeast, Japan), and each sample was added to the medium and incubated for 4 days with 5% CO2 at 37 °C. Cells were fixed in 10% glutaraldehyde for 15 min at 37 °C and subsequently incubated for 10 min at 37 °C in tartrate-resistant acid phosphatase (TRAP) buffer, containing 0.1 M sodium acetate, 0.1 M acetic acid, 10 mg/mL naphthol AS-MX phosphate, 0.1% Triton X-100, 0.3 M potassium tartrate, and 0.3 mg/mL Fast Red Violet LB Salt. TRAP-positive dark-red cells with more than three nuclei were manually counted under a light microscope (20× objective) as multinucleated osteoclasts. Y-27632[22] was used as a positive control.

[3] = split-luciferase biosensor lysate, 25 °C, mean ± SD of at least triplicate determinations, read-out: Concentration at 50% maximum light intensity

| relative intensity at a concentration of 100 μM ([1]; 100 μM, relative light intensity compared to control (1% ethanol)) | VDR binding affinity (in words) [1] | Relative binding affinity [1] | EC50 [1, 3] [µM] | EC50 ([1]; Fig. 2b, Table S1, read-out: EC50 value (VDR binding affinity)) [µM] | Structure (SMILES) | osteoclastic differentiation-promoting activity (in words) [2] |
| --- | --- | --- | --- | --- | --- | --- |
| – | higher affinity than 10 and 15 | 7.0 | 16 ± 2.2 | – | C=C1CCCC(C)(C)[C@@H]1CC/C(C)=C/CC[C@H]1C(=C)CC[C@H]2C(C)(C)CCC[C@]12C [compound 13] | – |
| – | tenfold higher than that of 1 | 10 | 11.1 ± 1.5 | – | C=C1CC[C@H]2C(C)(C)CCC[C@]2(C)[C@H]1CC[C@@H]1[C@@]2(C)CCCC(C)(C)[C@@H]2CC[C@@]1(C)O [compound 6] | not comparable to that of 1 |
| – | – | 4.6 | 24.6 ± 8.2 | – | C/C(=C\CC[C@@H]1[C@@]2(C)CCCC(C)(C)[C@@H]2CC[C@@]1(C)O)CC[C@H]1C(C)(C)CCC[C@]1(C)O [compound 10] | – |
| – | – | 1 | – | 112 ± 29 | C=C1CCCC(C)(C)[C@@H]1CC/C(C)=C/CC[C@@H]1[C@@]2(C)CCCC(C)(C)[C@@H]2CC[C@@]1(C)O [compound 1, ambrein] | – |
| – | – | 1510 | 0.074 ± 0.015 | – | C=C1CCC(O)CC1=CC=C1CCCC2(C)C1CCC2C(C)CCCC(C)(C)O (stereo not shown) [VD-II, 25-hydroxyvitamin D3, reference compound] | – |
| – | higher affinity than 10 and 15 | – | 13.9 ± 2.5 | – | C=C1CC[C@H]2C(C)(C)[C@@H](O)CC[C@]2(C)[C@H]1CC[C@@H]1[C@@]2(C)CCCC(C)(C)[C@@H]2CC[C@@]1(C)O [compound 14] | – |
| – | higher affinity than 10 and 15 | 8.9 | 12.6 ± 2.1 | – | CC1=CC[C@H]2C(C)(C)CCC[C@]2(C)[C@H]1CC[C@@H]1[C@@]2(C)CCCC(C)(C)[C@@H]2CC[C@@]1(C)O [compound 11] | – |
| – | – | 2.5 | 45.2 ± 17.1 | – | C=C1CC[C@H](O)C(C)(C)[C@@H]1CC/C(C)=C/CC[C@@H]1[C@@]2(C)CCCC(C)(C)[C@@H]2CC[C@@]1(C)O [compound 15] | – |
| – | – | 0.88 | 128 ± 38 | – | CC(C)=CCC/C(C)=C/CC/C(C)=C/CC[C@@H]1[C@@]2(C)CCCC(C)(C)[C@@H]2CC[C@@]1(C)O [compound 3] | no activity |

| Structure (SMILES) | relative intensity at a concentration of 100 μM ([1]; 100 μM, relative light intensity compared to control (1% ethanol)) | VDR binding affinity (in words) [1] | Relative binding affinity [1] | EC50 [1, 3] [µM] | EC50 ([1]; Fig. 2b, Table S1, read-out: EC50 value (VDR binding affinity)) [µM] | osteoclastic differentiation-promoting activity (in words) [2] |
| --- | --- | --- | --- | --- | --- | --- |
| C=C1CCCC(C)(C)C1CC/C(C)=C/CC/C=C(\C)CC/C=C(\C)CCC=C(C)C (stereo not shown) [compound 4] | 0.82 ± 0.07 | did not bind to the VDR; also recorded: very low VDR binding affinity | – | – | – | – |
